Reference: ChEMBL document CHEMBL6109119, “Chemoproteomic Profiling of C. albicans for Characterization of Antifungal Kinase Inhibitors” (J Med Chem, 2025)
Activity calls are given as the source filed them. The calls are words filed in the database; no cut-off is given here.

Experiments:
[1] = molecular target: T1, Activin receptor type-1B (Homo sapiens) (UniProt P36896); experiment: Binding affinity to human ALK4 transfected in HEK293 cells at 0.1 to 10 uM by MIB/MS competition assay; assay type: cell-based; settings: dose 0.1-10 µM
T1 sequence (whole entry): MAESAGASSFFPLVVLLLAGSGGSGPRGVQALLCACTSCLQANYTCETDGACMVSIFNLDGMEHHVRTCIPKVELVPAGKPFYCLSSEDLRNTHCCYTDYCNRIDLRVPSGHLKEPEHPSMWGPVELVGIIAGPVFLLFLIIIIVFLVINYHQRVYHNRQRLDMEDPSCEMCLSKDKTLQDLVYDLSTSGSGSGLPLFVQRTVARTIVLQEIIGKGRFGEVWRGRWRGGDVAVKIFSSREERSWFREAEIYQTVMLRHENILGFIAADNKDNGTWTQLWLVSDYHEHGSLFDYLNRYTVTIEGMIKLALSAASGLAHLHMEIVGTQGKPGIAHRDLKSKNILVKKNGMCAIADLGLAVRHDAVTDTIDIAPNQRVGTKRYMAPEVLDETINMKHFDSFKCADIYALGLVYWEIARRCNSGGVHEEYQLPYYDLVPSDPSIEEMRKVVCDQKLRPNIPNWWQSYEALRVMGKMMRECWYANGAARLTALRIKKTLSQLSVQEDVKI

[2] = molecular target: T2, Casein kinase I isoform epsilon (Homo sapiens, UniProt P49674); assay type: cell-based, HEK293
Target sequence in this assay (P49674 whole entry, canonical isoform): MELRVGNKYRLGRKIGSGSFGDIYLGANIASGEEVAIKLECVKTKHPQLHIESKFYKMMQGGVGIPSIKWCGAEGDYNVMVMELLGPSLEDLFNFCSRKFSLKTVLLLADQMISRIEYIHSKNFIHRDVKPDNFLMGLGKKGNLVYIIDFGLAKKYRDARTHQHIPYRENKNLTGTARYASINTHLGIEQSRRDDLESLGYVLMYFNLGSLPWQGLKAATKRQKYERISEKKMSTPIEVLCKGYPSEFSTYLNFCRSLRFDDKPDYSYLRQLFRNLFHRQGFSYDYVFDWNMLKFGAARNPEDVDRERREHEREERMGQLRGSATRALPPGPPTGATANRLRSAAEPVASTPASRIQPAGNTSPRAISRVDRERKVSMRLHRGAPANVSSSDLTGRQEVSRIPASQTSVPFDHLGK

[3] = molecular target: T3, Mitogen-activated protein kinase 14 (Homo sapiens, UniProt Q16539); experiment: Inhibition of human P38alpha transfected in HEK293 cells using NanoBRET NanoGlo substrate incubated for 2 hrs in presence of K4 tracer by NanoBRET assay; assay type: cell-based
[4] = molecular target: Receptor-interacting serine/threonine-protein kinase 2 (Homo sapiens) (UniProt O43353); experiment: Binding affinity to human RIPK2 transfected in HEK293 cells at 0.1 to 10 uM by MIB/MS competition assay; assay type: cell-based; settings: dose 0.1-10 µM
[5] = molecular target: T2, Casein kinase I isoform epsilon; experiment: Inhibition of human CK1epsilon transfected in HEK293 cells at 10 uM using NanoBRET NanoGlo substrate incubated for 2 hrs in presence of K8 tracer by NanoBRET assay relative to control; assay type: cell-based
Target sequence in this assay (P49674 whole entry, looked up, canonical isoform): as the sequence (P49674 whole entry, canonical isoform) above

[6] = molecular target: Casein kinase I isoform gamma-2 (Homo sapiens) (UniProt P78368); experiment: Binding affinity to human CK1gamma 2 transfected in HEK293 cells at 0.1 to 10 uM by MIB/MS competition assay; assay type: cell-based; settings: dose 0.1-10 µM
[7] = molecular target: T4, Casein kinase I isoform delta (Homo sapiens, UniProt P48730); experiment: Binding affinity to human CK1 delta transfected in HEK293 cells at 0.1 to 10 uM by MIB/MS competition assay; assay type: cell-based; settings: dose 0.1-10 µM
Target sequence in this assay (P48730 whole entry, looked up, canonical isoform): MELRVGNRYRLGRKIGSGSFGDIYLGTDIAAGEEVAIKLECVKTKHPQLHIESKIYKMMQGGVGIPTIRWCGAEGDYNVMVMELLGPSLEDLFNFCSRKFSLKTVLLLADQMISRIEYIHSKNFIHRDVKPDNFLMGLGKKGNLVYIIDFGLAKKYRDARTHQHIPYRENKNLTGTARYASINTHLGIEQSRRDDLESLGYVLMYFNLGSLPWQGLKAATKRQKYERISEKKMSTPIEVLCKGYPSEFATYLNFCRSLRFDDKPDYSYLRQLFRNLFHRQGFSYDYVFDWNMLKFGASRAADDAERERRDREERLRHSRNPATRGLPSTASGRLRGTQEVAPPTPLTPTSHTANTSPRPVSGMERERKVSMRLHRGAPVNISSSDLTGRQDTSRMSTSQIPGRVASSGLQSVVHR

[8] = molecular target: T2, Casein kinase I isoform epsilon; experiment: Binding affinity to human CK1epsilon transfected in HEK293 cells at 0.1 to 10 uM by MIB/MS competition assay; assay type: cell-based; settings: dose 0.1-10 µM
Target sequence in this assay (P49674 whole entry, looked up, canonical isoform): as the sequence (P49674 whole entry, canonical isoform) above

[9] = molecular target: Serine/threonine-protein kinase N3 (Homo sapiens) (UniProt Q6P5Z2); experiment: Binding affinity to human PKN3 transfected in HEK293 cells at 0.1 to 10 uM by MIB/MS competition assay; assay type: cell-based; settings: dose 0.1-10 µM
[10] = molecular target: T4, Casein kinase I isoform delta; assay type: cell-based, HEK293
Target sequence in this assay (P48730 whole entry, canonical isoform): as the sequence (P48730 whole entry, looked up, canonical isoform) above

[11] = molecular target: T3, Mitogen-activated protein kinase 14
[12] = molecular target: T5, Serine/threonine protein kinase YCK2 (Candida albicans (strain SC5314 / ATCC MYA-2876) (Yeast), UniProt A0A1D8PKB4); assay type: cell-based, HEK293
T5 sequence (A0A1D8PKB4 whole entry): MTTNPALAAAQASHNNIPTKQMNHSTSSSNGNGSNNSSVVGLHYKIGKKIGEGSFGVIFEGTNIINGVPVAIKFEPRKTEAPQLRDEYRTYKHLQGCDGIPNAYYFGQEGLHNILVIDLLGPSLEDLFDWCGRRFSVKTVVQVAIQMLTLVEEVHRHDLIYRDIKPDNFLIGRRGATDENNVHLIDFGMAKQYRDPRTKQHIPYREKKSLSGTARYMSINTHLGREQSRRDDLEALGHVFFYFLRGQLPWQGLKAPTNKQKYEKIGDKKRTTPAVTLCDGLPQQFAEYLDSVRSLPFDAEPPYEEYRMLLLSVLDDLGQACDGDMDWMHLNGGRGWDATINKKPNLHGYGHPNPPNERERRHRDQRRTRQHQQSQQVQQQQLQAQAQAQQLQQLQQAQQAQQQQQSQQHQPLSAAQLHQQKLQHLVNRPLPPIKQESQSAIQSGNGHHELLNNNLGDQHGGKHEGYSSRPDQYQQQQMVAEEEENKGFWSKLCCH

[13] = molecular target: T5, Serine/threonine protein kinase YCK2
[14] = molecular target: T6, Serine/threonine protein kinase YCK2 (Candida albicans (strain SC5314 / ATCC MYA-2876) (Yeast)) (UniProt A0A1D8PKB4); experiment: Binding affinity to Candida albicans Yck2 assessed as target engagement by MIB/MS competition assay
T6 sequence (whole entry): T5 sequence (A0A1D8PKB4 whole entry)

[15] = molecular target: Casein kinase I isoform alpha (Homo sapiens, UniProt P48729)
[16] = system: Candida albicans; experiment: Antifungal activity against Candida albicans harboring tetO-YCK2/yck2 mutant assessed as inhibition of fungal growth at 100 uM in presence of doxycyclin; assay type: functional, organism-based
[17] = system: Candida albicans; experiment: Antifungal activity against Candida albicans harboring cdr1mutant/mutant assessed as inhibition of fungal growth; assay type: functional, organism-based
[18] = system: Candida albicans; experiment: Antifungal activity against Candida albicans harboring tetO-YCK2/yck2 mutant assessed as inhibition of fungal growth at 100 uM in absence of doxycyclin; assay type: functional, organism-based
[19] = system: Candida albicans; experiment: Antifungal activity against wild type Candida albicans CaSS1 at 100 uM; assay type: functional, organism-based
[20] = system: Candida albicans; experiment: Antifungal activity against Candida albicans harboring tetO-ERG6/erg6mutant assessed as inhibition of fungal growth in presence of doxycyclin; assay type: functional, organism-based
[21] = system: Candida albicans; experiment: Binding affinity to Candida albicans Hog1 assessed as target engagement at 0.1 to 10 uM by MIB/MS competition analysis; settings: dose 0.1-10 µM
[22] = system: Candida albicans; experiment: Antifungal activity against Candida albicans harboring flu1mutant/mutant assessed as inhibition of fungal growth; assay type: functional, organism-based
[23] = system: Candida albicans; experiment: Antifungal activity against Candida albicans harboring cdr2mutant/mutant assessed as inhibition of fungal growth; assay type: functional, organism-based
[24] = system: Candida albicans; experiment: Antifungal activity against Candida albicans harboring mdr1mutant/mutant assessed as inhibition of fungal growth; assay type: functional, organism-based
[25] = system: Candida albicans; experiment: Binding affinity to Candida albicans Hrr25 assessed as target engagement at 0.1 to 10 uM by MIB/MS competition assay; settings: dose 0.1-10 µM
[26] = system: HEK293; settings: Candida albicans, dose 10.0 µM
[27] = system: HEK293; settings: Candida albicans, dose 10.0 µM; remark: listed apart in the source
[28] = molecular target: T6, Serine/threonine protein kinase YCK2 (Candida albicans (strain SC5314 / ATCC MYA-2876) (Yeast)); settings: HEK293, dose 10.0 µM
[29] = molecular target: Mitogen-activated protein kinase 11 (Homo sapiens) (UniProt Q15759); experiment: Binding affinity to human P38beta transfected in HEK293 cells at 0.1 to 10 uM by MIB/MS competition assay; assay type: cell-based; settings: dose 0.1-10 µM
[30] = system: HEK293; settings: Candida albicans, dose 10.0 µM; remark: listed apart in the source
[31] = molecular target: T6, Serine/threonine protein kinase YCK2 (Candida albicans (strain SC5314 / ATCC MYA-2876) (Yeast)); settings: HEK293, dose 10.0 µM; remark: listed apart in the source

Sequence of Casein kinase I isoform alpha (P48729 whole entry, canonical isoform): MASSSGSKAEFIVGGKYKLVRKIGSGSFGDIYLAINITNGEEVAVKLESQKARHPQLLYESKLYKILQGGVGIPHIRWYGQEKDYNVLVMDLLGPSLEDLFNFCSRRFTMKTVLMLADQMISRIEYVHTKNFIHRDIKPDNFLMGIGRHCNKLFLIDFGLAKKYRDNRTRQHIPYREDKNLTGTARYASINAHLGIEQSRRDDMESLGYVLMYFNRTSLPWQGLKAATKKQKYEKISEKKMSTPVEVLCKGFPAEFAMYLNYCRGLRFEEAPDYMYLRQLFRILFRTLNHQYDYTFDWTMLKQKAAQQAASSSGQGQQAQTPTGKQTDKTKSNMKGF
T3 sequence (Q16539 whole entry): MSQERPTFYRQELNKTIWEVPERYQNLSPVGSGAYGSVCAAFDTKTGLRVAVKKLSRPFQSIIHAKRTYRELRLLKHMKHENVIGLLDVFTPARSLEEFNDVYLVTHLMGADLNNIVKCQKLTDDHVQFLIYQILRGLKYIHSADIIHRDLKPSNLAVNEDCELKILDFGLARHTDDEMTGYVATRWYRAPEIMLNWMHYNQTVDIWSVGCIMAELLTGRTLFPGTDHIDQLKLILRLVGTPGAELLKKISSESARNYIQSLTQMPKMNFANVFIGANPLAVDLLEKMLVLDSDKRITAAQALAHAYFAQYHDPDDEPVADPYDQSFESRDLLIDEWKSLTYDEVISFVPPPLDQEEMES
Sequence of Receptor-interacting serine/threonine-protein kinase 2 (Homo sapiens) (O43353 whole entry, canonical isoform): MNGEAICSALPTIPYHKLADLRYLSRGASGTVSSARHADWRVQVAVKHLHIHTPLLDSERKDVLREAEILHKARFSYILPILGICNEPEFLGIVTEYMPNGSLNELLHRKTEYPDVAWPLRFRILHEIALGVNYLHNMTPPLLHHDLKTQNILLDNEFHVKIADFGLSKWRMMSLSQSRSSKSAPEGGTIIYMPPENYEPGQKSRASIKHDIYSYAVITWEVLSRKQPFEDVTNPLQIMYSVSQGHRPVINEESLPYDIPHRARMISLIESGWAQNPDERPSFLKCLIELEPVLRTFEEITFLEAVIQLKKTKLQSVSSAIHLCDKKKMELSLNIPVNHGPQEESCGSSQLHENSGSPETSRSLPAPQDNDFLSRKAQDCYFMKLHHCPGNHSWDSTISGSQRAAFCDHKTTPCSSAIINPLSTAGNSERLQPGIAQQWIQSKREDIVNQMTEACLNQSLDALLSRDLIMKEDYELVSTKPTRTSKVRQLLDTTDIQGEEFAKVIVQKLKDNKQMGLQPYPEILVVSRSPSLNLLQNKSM
Sequence of Serine/threonine-protein kinase N3 (Homo sapiens) (Q6P5Z2 whole entry, looked up, canonical isoform): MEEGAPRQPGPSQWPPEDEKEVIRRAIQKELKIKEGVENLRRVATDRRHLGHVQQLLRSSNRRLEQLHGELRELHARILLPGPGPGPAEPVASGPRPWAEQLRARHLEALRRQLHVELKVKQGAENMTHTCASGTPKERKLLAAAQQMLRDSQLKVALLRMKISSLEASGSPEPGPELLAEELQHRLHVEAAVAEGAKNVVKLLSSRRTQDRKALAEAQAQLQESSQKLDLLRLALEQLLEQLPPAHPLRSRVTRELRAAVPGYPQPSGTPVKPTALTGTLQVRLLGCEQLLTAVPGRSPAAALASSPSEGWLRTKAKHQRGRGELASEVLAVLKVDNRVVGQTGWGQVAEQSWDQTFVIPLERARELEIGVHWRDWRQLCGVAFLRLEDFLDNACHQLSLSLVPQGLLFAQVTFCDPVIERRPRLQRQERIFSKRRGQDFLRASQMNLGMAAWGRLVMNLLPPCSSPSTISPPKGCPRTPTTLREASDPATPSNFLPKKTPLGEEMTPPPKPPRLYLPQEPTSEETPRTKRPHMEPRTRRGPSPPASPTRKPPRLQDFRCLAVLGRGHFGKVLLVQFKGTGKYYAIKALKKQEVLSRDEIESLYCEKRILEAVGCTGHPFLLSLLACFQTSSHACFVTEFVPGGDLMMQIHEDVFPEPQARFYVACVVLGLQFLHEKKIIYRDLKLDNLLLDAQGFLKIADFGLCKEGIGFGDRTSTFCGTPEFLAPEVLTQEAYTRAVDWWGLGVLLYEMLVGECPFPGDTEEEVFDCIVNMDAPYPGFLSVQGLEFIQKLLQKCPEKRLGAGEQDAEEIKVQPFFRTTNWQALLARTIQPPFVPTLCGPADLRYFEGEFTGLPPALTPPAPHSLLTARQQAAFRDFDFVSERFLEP
Sequence of Mitogen-activated protein kinase 11 (Homo sapiens) (Q15759 whole entry): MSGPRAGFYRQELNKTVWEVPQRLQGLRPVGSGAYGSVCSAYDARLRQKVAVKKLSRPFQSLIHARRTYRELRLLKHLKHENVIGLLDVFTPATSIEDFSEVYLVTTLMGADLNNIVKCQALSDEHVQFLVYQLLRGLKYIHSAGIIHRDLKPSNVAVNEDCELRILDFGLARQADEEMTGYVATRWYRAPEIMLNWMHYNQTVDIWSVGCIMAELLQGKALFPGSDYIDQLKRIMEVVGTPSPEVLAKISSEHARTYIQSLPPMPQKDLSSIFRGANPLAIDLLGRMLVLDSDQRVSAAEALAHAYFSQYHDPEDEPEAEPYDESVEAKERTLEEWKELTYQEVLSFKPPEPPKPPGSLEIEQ
Sequence of Casein kinase I isoform gamma-2 (Homo sapiens) (P78368 whole entry, looked up, canonical isoform): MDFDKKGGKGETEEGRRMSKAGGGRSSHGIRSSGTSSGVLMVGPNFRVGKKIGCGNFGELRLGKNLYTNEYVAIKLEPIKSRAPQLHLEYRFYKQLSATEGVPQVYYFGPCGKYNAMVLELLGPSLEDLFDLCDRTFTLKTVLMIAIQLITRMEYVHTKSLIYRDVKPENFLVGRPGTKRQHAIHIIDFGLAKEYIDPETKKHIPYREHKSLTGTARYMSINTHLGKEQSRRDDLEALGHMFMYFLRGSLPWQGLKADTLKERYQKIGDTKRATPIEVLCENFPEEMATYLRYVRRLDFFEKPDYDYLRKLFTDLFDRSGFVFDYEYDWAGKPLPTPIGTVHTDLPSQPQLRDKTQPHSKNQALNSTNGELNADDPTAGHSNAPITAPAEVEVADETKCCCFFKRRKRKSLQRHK

Row | Compound | IC50 [2] [nM] | IC50 [3] [nM] | inhibition [5] [%] | IC50 [10] [nM] | IC50 [11] [nM] | IC50 [12] [nM] | IC50 [13] [nM] | further results
1 | N#Cc1ccc2c(-c3ccncc3)c(-c3ccc(F)cc3)nn2c1 | > 10000 | 80 | 25 | – | – | – | – | Activity [1]: Active; Activity [4]: Active; Activity [6]: Active; Activity [7]: Active; Activity [8]: Active; Activity [9]: Active
2 | C[C@@H](N)c1ccc(C(=O)Nc2ccnc3[nH]ccc23)cc1 [Y-39983] | > 10000 | – | 25 | > 10000 | > 20000 | > 10000 | > 8000 | –
3 | Cc1nc(N)sc1-c1ccnc(Nc2ccc(N3CCOCC3)cc2)n1 [CYC-116] | ~10000 | – | > 50 | – | > 20000 | > 10000 | – | –
4 | Cc1n[nH]c2ccc(-c3cc(OC[C@@H](N)Cc4ccccc4)cnc3-c3ccoc3)cc12 | 200 | – | – | 100 | – | 100 | – | Activity [14]: Dose-dependent-effect
5 | Cc1ccc2c(-c3ccncc3)c(-c3ccc(F)cc3)nn2c1 | 780 | 44 | – | 230 | – | – | – | –
6 | CC(C)[C@H](CO)Nc1nc(Nc2cc(N)cc(Cl)c2)c2ncn(C(C)C)c2n1 [AMINOPURVALANOL] | > 10000 | – | 25 | > 10000 | > 20000 | > 10000 | > 8000 | IC50 [15]: > 20000 nM
7 | CC(C)(C)n1nc(Cc2cccc3ccccc23)c2c(N)ncnc21 | 14 | 1600 | – | > 10000 | 750 | – | > 8000 | –
8 | CN1CCC(F)(Cn2cnc(-c3ccc(F)cn3)c2-c2ccnc3[nH]ccc23)CC1 | 82 | – | – | – | – | > 10000 | 640 | IC50 [15]: 14 nM
9 | CC(C)(C)c1cnc(CSc2cnc(NC(=O)C3CCNCC3)s2)o1 [BMS-387032] | – | – | 25 | – | – | > 10000 | > 8000 | –
10 | Cc1occc1-c1nc(N)c(OC[C@@H](N)Cc2c[nH]c3ccccc23)cc1-c1cc2c(C)n[nH]c2cn1 | 620 | – | – | 1400 | – | 3700 | 180 | –
11 | c1ccc(-c2n[nH]cc2-c2ccnc3ccccc23)nc1 | – | 760 | < 25 | 2800 | 2600 | – | – | Activity [16]: Active; Activity [17]: inactive; Activity [18]: Active; Activity [19]: Active; Weakly Active; Activity [20]: Active; Activity [21]: inactive; Activity [22]: inactive; Activity [23]: inactive; Activity [24]: inactive; Activity [25]: Active
12 | Nc1nc(Nc2ccc(S(N)(=O)=O)cc2)n(C(=S)Nc2c(F)cccc2F)n1 | > 10000 | – | 25 | – | > 20000 | > 10000 | 470 | IC50 [15]: > 20000 nM
13 | CC(=O)c1cnc2ccc(-c3cc(Cl)c(O)c(Cl)c3)nc2c1N[C@H]1CC[C@H](CN(C)C)CC1 | – | > 10000 | – | – | 40 | 660 | – | –
14 | CNC(=O)c1nn(C)c2c1C(C)(C)Cc1cnc(Nc3ccc(N4CCN(C)CC4)cc3)nc1-2 [MILCICLIB] | – | – | – | 200 | > 20000 | 1100 | 770 | IC50 [15]: 250 nM
15 | N#Cc1ccn2c(-c3ccncc3)c(-c3ccc(F)cc3)nc2c1 | > 10000 | – | 25 | – | – | – | – | Activity [4]: Active; log2FC [26]: -1.4; log2FC [27]: -2.2; log2FC [28]: -3.5; Activity [7]: Active; Activity [29]: Active; log2FC [30]: -1; Activity [8]: Active; Activity [9]: Active; log2FC [31]: -2.2
16 | CC(C)n1nc(-c2cc3cc(O)ccc3[nH]2)c2c(N)ncnc21 | – | – | > 50 | – | – | – | – | –
